Columns and labels:
Type in all cases: in vivo
[1] = tested on: Alopecurus myosuroides (ALOMY); assay: Herbicidal pre-emergence action; conditions: 1280 g/ha, graded after ca. 3 weeks
Text: (§1) Seeds of mono- and dicotyledonous weed plants and crop plants were sown, in plastic or organic planting pots, in sandy loam and covered with soil. The compounds according to the invention, formulated in the form of wettable powders (WP) or as emulsifiable concentrates (EC), were applied to the surface of the covering soil as aqueous suspension or emulsion, with the addition of 0.5% of an additive, at an application rate of 600 1 of water/ha (converted).
(§2) Following treatment, the pots were placed in a greenhouse and kept under optimum growth conditions for the test plants. The visual grading of the damage to the test plants was carried out after ca. 3 weeks in comparison to untreated controls (herbicidal effect in percent (%): 100% effect=plants have died off, 0% effect=as control plants).
(§3) Tables A1 to A16, below, show the effects of selected compounds of the general formula (I) according to table 1 on various harmful plants and an application rate corresponding to 1280 g/ha or lower obtained by the experimental procedure mentioned above.

[2] = tested on: Avena fatua (AVEFA); assay: Herbicidal pre-emergence action; conditions: 1280 g/ha, graded after ca. 3 weeks
Text: as §1, §2, §3

[3] = tested on: Cyperus esculentus (CYPES); assay: Herbicidal pre-emergence action; conditions: 1280 g/ha, graded after ca. 3 weeks
Text: as §1, §2, §3

[4] = tested on: Polygonum convolvulus (POLCO); assay: Herbicidal pre-emergence action; conditions: 1280 g/ha, graded after ca. 3 weeks
Text: as §1, §2, §3

[5] = tested on: Setaria viridis (SETVI); assay: Herbicidal pre-emergence action; conditions: 1280 g/ha, graded after ca. 3 weeks
Text: as §1, §2, §3

[6] = tested on: Echinochloa crus-galli (ECHCG); assay: Herbicidal pre-emergence action; conditions: 1280 g/ha, graded after ca. 3 weeks
Text: as §1, §2, §3

[7] = tested on: Lolium multiflorum (LOLMU); assay: Herbicidal pre-emergence action; conditions: 1280 g/ha, graded after ca. 3 weeks
Text: as §1, §2, §3

[8] = tested on: Alopecurus myosuroides (ALOMY); assay: Herbicidal post-emergence action; conditions: 1280 g/ha, assessed after ca. 3 weeks
Text: (§4) Seeds of mono- and dicotyledonous weed plants and crop plants were sown, in plastic or organic planting pots, in sandy loam, covered with soil and grown in a greenhouse under controlled growth conditions. 2 to 3 weeks after sowing, the test plants were sprayed in the single-leaf stage. The compounds according to the invention, formulated in form of wettable powders (WP) or as emulsifiable concentrates (EC), were sprayed onto the green plant parts as aqueous suspension or emulsion, with the addition of 0.5% of an additive, at an application rate of 600 1 of water/ha (converted). The test plants were placed in the greenhouse for ca. 3 weeks under optimum growth conditions, and then the effect of the preparations was assessed visually in comparison with untreated controls (herbicidal effect in percent (%): 100% effect=plants have died off, 0% effect=as control plants).
(§5) Tables B1 to B16 below show the effects of selected compounds of the general formula (I) according to table 1 on various harmful plants and an application rate corresponding to 1280 g/ha or 320 g/ha obtained by the experimental procedure mentioned above.

[9] = tested on: Avena fatua (AVEFA); assay: Herbicidal post-emergence action; conditions: 1280 g/ha, assessed after ca. 3 weeks
Text: as §4, §5

[10] = tested on: Echinochloa crus-galli (ECHCG); assay: Herbicidal post-emergence action; conditions: 1280 g/ha, assessed after ca. 3 weeks
Text: as §4, §5

[11] = tested on: Lolium multiflorum (LOLMU); assay: Herbicidal post-emergence action; conditions: 1280 g/ha, assessed after ca. 3 weeks
Text: as §4, §5

[12] = tested on: Setaria viridis (SETVI); assay: Herbicidal post-emergence action; conditions: 1280 g/ha, assessed after ca. 3 weeks
Text: as §4, §5

[13] = tested on: Veronica persica (VERPE); assay: Herbicidal pre-emergence action; conditions: 1280 g/ha, graded after ca. 3 weeks
Text: as §1, §2, §3

Row | SMILES | Pre-emergence activity against ALOMY [1] | Pre-emergence activity against AVEFA [2] | Pre-emergence activity against CYPES [3] | Pre-emergence activity against POLCO [4] | Pre-emergence activity against SETVI [5] | Pre-emergence activity against ECHCG [6] | Pre-emergence activity against LOLMU [7] | Post-emergence activity against ALOMY [8] | Post-emergence activity against AVEFA [9] | Post-emergence activity against ECHCG [10] | Post-emergence activity against LOLMU [11] | Post-emergence activity against SETVI [12] | Pre-emergence activity against VERPE [13]
1 | NC(=O)CC1CCC(=O)N1Cc1cccc(F)c1F (racemic) [Example I-057] | 90% | 80% | 100% | 80% | 80% | – | – | – | – | – | – | – | –
2 | COC(=O)CC1CCC(=O)N1Cc1cccc(F)c1F (racemic) [Example I-008] | 90% | 100% | – | 90% | 90% | 90% | 80% | 80% | 90% | 90% | 80% | 80% | –
3 | CC(C)C(C)OC(=O)CC1CCC(=O)N1Cc1cccc(F)c1F (racemic) [Example I-036] | 90% | 100% | – | 80% | 100% | 80% | 80% | 80% | 90% | 90% | – | – | 90%
4 | O=C(CC1CCC(=O)N1Cc1cccc(F)c1F)OCCS(=O)(=O)c1ccccc1 (racemic) [Example I-032] | 90% | 100% | 80% | – | – | 80% | – | 80% | – | 90% | 90% | – | 80%
5 | CC[C@@H](C)[C@@H](NC(=O)CC1CCC(=O)N1Cc1cccc(F)c1F)C(=O)O (single isomer, unassigned) [Example I-043] | 90% | 100% | – | – | 90% | 90% | 80% | 80% | 80% | 80% | 80% | 80% | –
6 | CCC(C)OC(=O)CC1CCC(=O)N1Cc1cccc(F)c1F (racemic) [Example I-030] | 90% | 100% | – | 80% | 80% | 80% | 80% | 80% | 80% | 80% | 80% | – | 90%
7 | O=C(CC1CCC(=O)N1Cc1cccc(F)c1F)NCc1ccc(Cl)nc1 (racemic) [Example I-102] | – | – | – | 80% | – | – | – | – | – | – | – | – | 90%
8 | Cc1nonc1NC(=O)CC1CCC(=O)N1Cc1cccc(F)c1F (stereo not drawn) [Example I-046, 2-[1-[(2,3-difluorophenyl)methyl]-5-oxo-pyrrolidin-2-yl]-N-(4-methyl-1,2,5-oxadiazol-3-yl)acetamide] | – | 100% | 100% | – | – | – | – | – | 90% | – | 80% | – | 100%
9 | CCCC(C)OC(=O)CC1CCC(=O)N1Cc1cccc(F)c1F (racemic) [Example I-028] | 80% | 100% | 80% | – | 80% | 80% | 90% | 80% | 80% | 80% | 80% | – | 80%
10 | O=C(CC1CCC(=O)N1Cc1cccc(F)c1F)OCCSc1ccccc1 (racemic) [Example I-022] | 90% | 90% | – | – | 80% | – | – | – | 90% | 90% | 80% | 90% | –
11 | O=C(CC1CCC(=O)N1Cc1cccc(Cl)c1Cl)NS(=O)(=O)C(F)F (racemic) [Example I-095] | – | – | – | – | – | – | – | – | – | – | – | – | 80%
12 | Cc1ccc2c(c1)C(NC(=O)CC1CCC(=O)N1Cc1cccc(F)c1F)C(C)C2 (mixture of isomers) [Example I-106] | – | – | – | – | – | – | – | – | – | – | – | – | 80%
13 | Cc1ccc(CN2C(=O)CCC2CC(=O)NS(C)(=O)=O)c(F)c1F (racemic) [Example I-087] | 90% | – | – | – | – | – | – | – | – | – | – | – | 100%
14 | CS(=O)(=O)NC(=O)CC1CCC(=O)N1Cc1cccc(Cl)c1Cl (racemic) [Example I-105] | – | – | – | – | – | – | – | – | – | – | – | – | 90%
15 | O=C(CC1CCC(=O)N1Cc1cccc(F)c1F)OCC1CC1 (racemic) [Example I-020] | 80% | 100% | – | – | – | 80% | 80% | 80% | 90% | 90% | 80% | – | 80%
16 | COc1ccc(OCCOC(=O)CC2CCC(=O)N2Cc2cccc(F)c2F)cc1 (racemic) [Example I-031] | 90% | 100% | 80% | 80% | – | 80% | – | 90% | – | 90% | 90% | 80% | –
17 | CC(C)(C)COC(=O)CC1CCC(=O)N1Cc1cccc(F)c1F (racemic) [Example I-018] | 90% | 100% | 80% | 80% | 90% | 90% | 90% | 80% | 80% | 90% | 80% | – | 90%
18 | O=C(CC1CCC(=O)N1Cc1cccc(F)c1F)OC1CCC1 (racemic) [Example I-024] | 90% | 100% | 90% | 80% | 80% | 80% | 90% | 90% | 90% | 90% | 90% | 80% | –
19 | CCOC(=O)CC1CCC(=O)N1Cc1cccc(F)c1F (racemic) [Example I-019] | 90% | 100% | 80% | 90% | 90% | 90% | 90% | 80% | 100% | 80% | 90% | – | –

Source: patent US20240199542A1, “SUBSTITUTED PYRROLIDIN-2-ONES, SALTS THEREOF AND THEIR USE AS HERBICIDALLY ACTIVE SUBSTANCES” (Bayer Aktiengesellschaft, priority 2021, published 2024)
